Experiments:
K88 fimbriae = biological target: T1, K88 fimbriae (Escherichia coli, UniProt P14190); test: Inhibition of adherence of I125-labelled K88-fimbriae to brush border membranes from pig small intestine; format: binding, E.coli; conditions: for inhibited the adherence of K88 fimbriae to the brush border membranes: 0.5 ml oligosaccharide solution 5 mg/ml in PBS, 0.5 ml I125-labelled K88 fimbriae 0.5 mg/ml, 1 ml brush border membranes 2 · 10^6 cells/ml, 37°C; for inhibition at 5000 µg/mL: read-out: inhibited the adherence of K88 fimbriae to the brush border membranes
T1 construct: In the experiments I^125-labelled K88 fimbriae at a concentration of 0.5 mg/ml in PBS were used; made in house; host or cells: E. coli O149 K88+ (native fimbriae isolated from the bacteria)
T1 sequence (P14190 22-283 limits assumed): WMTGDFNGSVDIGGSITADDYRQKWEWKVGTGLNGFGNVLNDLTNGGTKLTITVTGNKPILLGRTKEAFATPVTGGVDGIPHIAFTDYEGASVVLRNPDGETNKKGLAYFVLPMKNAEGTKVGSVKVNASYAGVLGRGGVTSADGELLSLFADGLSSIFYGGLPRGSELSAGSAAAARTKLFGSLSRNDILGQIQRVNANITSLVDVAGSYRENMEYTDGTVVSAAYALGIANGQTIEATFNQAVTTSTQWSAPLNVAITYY
Description: In the experiments I^125-labelled K88 fimbriae at a concentration of 0.5 mg/ml in PBS were used. Moreover, brush border membranes prepared according to Sellwood et al at a concentration of 2 · 10^6 cells/ml in PBS were used.
Oligosaccharides tested for their inhibiting ability were dissolved in PBS to a concentration of 5 mg/ml.
In the inhibition tests 0.5 ml I125-labelled K88 fimbriae was incubated with 0.5 ml oligosaccharide solution at 37°C for 30 minutes, 1 ml of the suspension of brush border membranes being then added. After incubation for another 60 minutes at 37°C the mixture was centrifuged for 15 minutes at 600 x g, the radioactivity being then measured in the supernatant. As a control 1 ml of PBS was used.

E.coli = test: Disinfection: removal of bacteria from an infected surface; conditions: 0.1 percent by weight aqueous solution applied by cotton pad onto a surface infected by E.coli
Description: By disinfection is here primarily intended removal of bacteria from a surface, for example a wound.
A 0.1 percent by weight aqueous solution of the compound a-D-Galp-(1-3)-D-Gal is prepared and applied by means of a cotton pad onto a surface infected by E.coli.

Structure (SMILES)	inhibited the adherence of K88 fimbriae to the brush border membranes (K88 fimbriae)	inhibition at 5000 µg/mL (K88 fimbriae)	removal of the bacterium from the surface (E.coli)
OC[C@H]1O[C@H](OC[C@H]2OC(O)[C@H](O)[C@@H](O)[C@H]2O)[C@H](O)[C@@H](O)[C@H]1O (stereo partly drawn) [α-D-Galp-(1-6)-D-Gal, reference compound]	inactive	–	–
OC[C@H]1O[C@H](O[C@H]2[C@@H](O)[C@@H](CO)O[C@H](O[C@H]3[C@@H](O)[C@@H](CO)OC(O)[C@@H]3O)[C@@H]2O)[C@H](O)[C@@H](O)[C@H]1O (stereo partly drawn) [α-D-Galp-(1-3)-α-D-Galp-(1-3)-D-Gal]	–	79%	–
OC[C@H]1O[C@H](O[C@@H]2[C@H](O)[C@@H](O)C(O)O[C@@H]2CO)[C@H](O)[C@@H](O)[C@H]1O (stereo partly drawn) [α-D-Galp-(1-4)-D-Gal, reference compound]	inactive	–	–
OC[C@H]1O[C@H](O[C@H]2[C@@H](O)[C@@H](CO)O[C@H](O[C@H]3[C@@H](O)[C@@H](CO)O[C@H](O[C@H]4[C@@H](O)[C@@H](CO)OC(O)[C@@H]4O)[C@@H]3O)[C@@H]2O)[C@H](O)[C@@H](O)[C@H]1O (stereo partly drawn) [α-D-Galp-(1-3)-α-D-Galp-(1-3)-α-D-Galp-(1-3)-D--Gal]	–	73%	–
OC[C@H]1O[C@H](O[C@H]2[C@@H](O)[C@@H](CO)OC(O)[C@@H]2O)[C@H](O)[C@@H](O)[C@H]1O (stereo partly drawn) [α-D-Galp-(1-3)-D-Gal]	–	70%	effective removal

— EP0089940A1, “Compositions for therapeutic or diagnostic use containing oligosaccharides” (priority 1982, dated 1983)
